Results: PMC6445242, “Novel tetrazole and cyanamide derivatives as inhibitors of cyclooxygenase-2 enzyme: design, synthesis, anti-inflammatory evaluation, ulcerogenic liability and docking study” (Journal of Enzyme Inhibition and Medicinal Chemistry, 2017)
“Also recorded” adds a separate entry of the source. Marks after values point to notes of the source that are not given here.

Legend:
rat's gastric tissue = test: Histopathological investigation of stomach; format: in vivo; conditions: haematoxylin and eosin, after ulcerogenic liability dosing
Experimental: Whole rats stomach were collected, selected stomach samples from each rat were fixed in 10% neutral buffered formalin for 48 h and routinely processed for paraffin embedding. 5 μm Thickness sections were obtained then stained with haematoxylin and eosin for histopathological evaluation.

[1] = tested on: gastric mucosa (ulcer number, ulcer index); test: Ulcerogenic liability; format: in vivo, rat; conditions: 50 mg/kg oral, three successive days, rats; for Ulcer index: sum of % incidence, average severity and average number of ulcers
Experimental: Female wister rats (150–200 g) were used in this study. The animals were kept at controlled conditions (temperature 23 ± 2 °C, humidity 60 ± 10%) and a 12/12-h light/dark cycle with access to food and water. All procedures relating to animal care and treatments were performed according to protocols approved by the Research Ethical Committee of Faculty of Pharmacy Beni-Suef University (2014-Beni-Suef, Egypt).
[…]. Forty-eight rats were used in this study, divided into 12 groups and fasted for 18 h before drug administration. The control group received the vehicle (2.5% Tween 80). Other groups received test compounds, celecoxib or indomethacin at a dose of 50 mg/kg, then animals were fed after 2 h. Rats were given the specified dose orally for three successive days. Rats were sacrificed after 2 h of the last dose, then the stomach of each rat was removed and opened along the greater curvature for determination of the ulcer number and ulcer index according to the reported method.

[2] = tested on: carrageenan-induced paw oedema; test: Carrageenan-induced rat paw oedema; format: in vivo; conditions: 50 mg/kg oral; for %Inhibition of paw oedema, 1h / Paw thickness change mean ± SEM, 1h: 1 h after carrageenan; for Paw thickness change mean ± SEM, 1h / Paw thickness change mean ± SEM, 3h / Paw thickness change mean ± SEM, 5h: n = 4; for %Inhibition of paw oedema, 3h / Paw thickness change mean ± SEM, 3h: 3 h after carrageenan; for %Inhibition of paw oedema, 5h / Paw thickness change mean ± SEM, 5h: 5 h after carrageenan
Experimental: Female wister rats (150-200 g) were used in this study. The animals were kept at controlled conditions (temperature 23 ± 2 °C, humidity 60 ± 10%) and a 12/12-h light/dark cycle with access to food and water. All procedures relating to animal care and treatments were performed according to protocols approved by the Research Ethical Committee of Faculty of Pharmacy Beni-Suef University (2014-Beni-Suef, Egypt). The anti-inflammatory activity of the synthesised compounds was determined in vivo by […]-induced paw oedema method in rats[49]. Rats were divided into 21 groups of four animals each, and then, they were fasted overnight with free access to water before the experiment. Before any drug administration, thickness of the left hind paw of each rat was measured in millimetres. Group 1 served as a control and administered the vehicle (2.5% Tween 80).

ovine COX-1 = target: T1, ovine COX-1 (Ovis aries, UniProt P05979); test: In vitro COX-1 inhibition assay (EIA kit, Cayman)
T1 sequence (P05979 25-600): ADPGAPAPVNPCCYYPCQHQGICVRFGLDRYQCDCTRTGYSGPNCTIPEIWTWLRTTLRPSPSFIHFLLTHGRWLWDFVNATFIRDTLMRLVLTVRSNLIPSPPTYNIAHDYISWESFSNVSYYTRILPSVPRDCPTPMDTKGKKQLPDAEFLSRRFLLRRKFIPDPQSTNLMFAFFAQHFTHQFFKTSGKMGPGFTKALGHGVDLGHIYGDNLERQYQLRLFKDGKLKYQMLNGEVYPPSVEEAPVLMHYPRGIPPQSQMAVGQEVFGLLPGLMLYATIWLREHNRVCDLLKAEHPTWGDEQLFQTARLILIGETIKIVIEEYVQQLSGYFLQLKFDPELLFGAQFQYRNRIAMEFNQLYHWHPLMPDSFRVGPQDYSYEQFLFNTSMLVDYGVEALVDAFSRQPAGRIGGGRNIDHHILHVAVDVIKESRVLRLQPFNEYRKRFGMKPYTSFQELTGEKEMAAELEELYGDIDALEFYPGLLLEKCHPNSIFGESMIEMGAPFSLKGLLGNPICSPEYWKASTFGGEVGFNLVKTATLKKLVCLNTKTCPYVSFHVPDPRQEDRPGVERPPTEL
Experimental: (§1) The peroxidase activity of cyclooxygenase enzyme isoforms was measured using the COX activity assay kit. The ability of the test compounds to inhibit both ovine COX-1 and COX-2 enzymes was explored in vitro using a colorimetric enzyme immunoassay (EIA) kit. The appearance of oxidised N,N,N′,N′-tetramethyl-p-phenylenediamine (TMPD) was monitored at 590 nm. The kit includes isozyme-specific inhibitors for distinguishing COX-2 activity from that of COX-1.

ovine COX-2 = target: T2, ovine COX-2 (Ovis aries, UniProt P79208); test: In vitro COX-2 inhibition assay (EIA kit, Cayman); conditions: for IC50: IC50 COX-2, ovine COX-2, mean of two determinations; for SI, COX-2 selectivity index (COX-1 IC50/COX-2 IC50): ovine enzymes
T2 sequence (P79208 17-603): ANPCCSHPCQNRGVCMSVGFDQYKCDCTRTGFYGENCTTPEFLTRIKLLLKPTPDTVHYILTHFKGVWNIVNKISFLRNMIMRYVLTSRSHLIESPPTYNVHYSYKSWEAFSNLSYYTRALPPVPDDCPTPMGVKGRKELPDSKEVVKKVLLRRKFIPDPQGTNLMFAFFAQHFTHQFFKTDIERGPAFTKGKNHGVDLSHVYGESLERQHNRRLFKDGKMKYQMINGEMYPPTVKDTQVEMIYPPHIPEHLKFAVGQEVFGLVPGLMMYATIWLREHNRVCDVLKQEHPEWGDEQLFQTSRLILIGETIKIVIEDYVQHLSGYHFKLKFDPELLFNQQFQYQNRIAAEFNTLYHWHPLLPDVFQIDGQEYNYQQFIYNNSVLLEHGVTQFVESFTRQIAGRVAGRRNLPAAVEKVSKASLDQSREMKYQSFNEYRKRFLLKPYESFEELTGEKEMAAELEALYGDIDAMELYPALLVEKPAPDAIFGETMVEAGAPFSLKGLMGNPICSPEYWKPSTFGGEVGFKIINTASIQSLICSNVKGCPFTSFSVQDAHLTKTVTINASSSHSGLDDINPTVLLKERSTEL
Experimental: as §1

[3] = tested on: latency time of pain response; test: Hot plate method (central analgesic activity); format: in vivo; conditions: 10 mg/kg oral, mice, hot plate 55 °C, after 60 min
Experimental: This method was used to evaluate the central analgesic activity by determination of the delay in the latency time of pain response. […] After 60 min, the animals were placed on a hot plate maintained at 55 ± 0.5 °C. The reaction time was recorded as the time taken by the animals to […] or lick the fore or hind paw or jump off the plate.

Compound	Histopathological findings in stomach (rat's gastric tissue)	Average number of ulcers [1]	Ulcer index [1]	%Inhibition of paw oedema, 1h [2]	Paw thickness change mean ± SEM, 1h [2] [mm]	%Inhibition of paw oedema, 3h [2] [%]	Paw thickness change mean ± SEM, 3h [2] [mm]	%Inhibition of paw oedema, 5h [2] [%]	Paw thickness change mean ± SEM, 5h [2] [mm]	melting point [°C]	IC50 (ovine COX-1) [µM]	IC50 (ovine COX-2) [µM]	SI, COX-2 selectivity index (COX-1 IC50/COX-2 IC50) (ovine COX-2)	Central analgesic activity (delay in latency time) [3]	Ulcer index ([1]; listed as indomethacin)
Cc1ccc(-c2cc(C(F)(F)F)nn2-c2ccc(S(N)(=O)=O)cc2)cc1 [Celecoxib, reference compound]	thickening and hyalinosis of basement membrane with lymphocytic infiltration and minimal congested submucosal blood capillaries	0.50	0.50	76%	0.38 ± 0.03	66	0.58 ± 0.11	19	1.08 ± 0.13						
COc1ccc(-c2cc(-c3ccc(-n4cnnn4)cc3)nc(N)c2C#N)cc1OC [Compound 4c, 6-[4-(1H-Tetrazol-1-yl)phenyl]-2-amino-4-(3,4-dimethoxyphenyl)nicotinonitrile]	mucous degeneration in gastric glandular epithelium reach to coagulative necrosis	1.75	1.75		0.83 ± 0.15	58	0.70 ± 0.11	8	1.23 ± 0.11	230 to 232	16	0.38	42.02		
N#Cc1c(-c2ccccc2)cc(-c2ccc(-n3cnnn3)cc2)[nH]c1=O [Compound 5a, 6-[4-(1H-Tetrazol-1-yl)phenyl]-2-oxo-4-phenyl-1,2-dihydropyridine-3-carbonitrile]	all layers of stomach were more or less normal; also recorded: most preferable compound with minimal drug effect on tissue	0.75	1.25	61%	0.61 ± 0.08	54	0.63 ± 0.18	61	0.53 ± 0.09	281 to 283	7.09	0.18	39.38		
COc1cc(C2CC(c3ccc(-n4cnnn4)cc3)=NN2c2ccc(S(C)(=O)=O)cc2)cc(OC)c1OC (centres unmarked) [Compound 8b]	massive destruction of localised area of epithelium with formation of an erosion associated with hyalinosis and necrosis of muscular layer	0.75	0.75	71%	0.45 ± 0.10	48	0.88 ± 0.09	38	0.83 ± 0.17	241 to 243	3.87		35.18	potent analgesic activities	
COc1ccc(C2CC(c3ccc(-n4cnnn4)cc3)=NN2c2ccc(S(C)(=O)=O)cc2)cc1OC (centres unmarked) [Compound 8a, 1-{4-[5-(3,4-Dimethoxyphenyl)-1-(4-(methanesulphonyl)phenyl]-4,5-dihydro-1H-pyrazol-3-yl)phenyl}-1H-tetrazole]	some areas of glandular epithelium were more or less normal associated with sever congested blood capillaries and eosinophilic infiltrations in submucosa	1.50		71–75%		52	0.89 ± 0.19	15	1.13 ± 0.11		8.67	0.32		potent analgesic activities	
COc1ccc2c(c1)c(CC(=O)O)c(C)n2C(=O)c1ccc(Cl)cc1 [Indomethacin, reference compound]	Complete disruption of protective mucosal layer	14.25***	22.50***												22.5
COc1cc(C2CC(c3ccc(-n4cnnn4)cc3)=NN2c2ccc(S(N)(=O)=O)cc2)cc(OC)c1OC (centres unmarked) [Compound 9b, 4-{3-[4-(1H-Tetrazol-1-yl)phenyl]-5-(3,4,5-trimethoxyphenyl)-4,5-dihydro-1H-pyrazol-1-yl)benzenesulphonamide]	Mucous degeneration of glandular epithelium of gastric mucosa, and lymphocytic infiltration and mild congestion in submucosa	0.25		75%	0.40 ± 0.11	40	1.00 ± 0.16	12	1.18 ± 0.20		7.37	0.21			
